Laboratory results reported in patent US20090024021A1, “Methods and Systems for Using Transcranial Magnetic Stimulation and Functional Brain Mapping for Examining Cortical Sensitivity, Brain Communication, and Effects of Medication” (priority 2002, published 2009).
Values joined by “and” are separate entries in the source; they are usually repeats but may differ in a detail not shown here. Identical values can stand only once.

Experiments:
[1] = test system: left primary motor cortex; assay: Resting motor threshold (RMT) by TMS with EMG of abductor pollicis brevis; assay type: in vivo, human
Procedure: (§1) Study design: We performed a randomized, double-blind, crossover trial involving two visits at least one week apart (FIG. 8). […] Serum LTG levels, RMTs, and interleaved TMS/phMRI images during both motor and then prefrontal TMS were then gathered for each subject. One week later they received LTG or placebo again, followed by identical RMT and interleaved TMS/phMRI studies.
(§2) General Procedure: After arriving at the laboratory in the early afternoon, baseline RMT was determined and baseline plasma levels of LTG were drawn. They were then given a single oral dose of 325 mg LTG or placebo. They then waited quietly for 3 hours. Three hours after taking the oral pill, RMT was determined and serum plasma levels were again drawn.
TMS: Focal TMS was delivered by a MAGSTIM Super Rapid stimulator (Magstim Co, Whitland, Dyfed, U.K) and applied through a focal figure-of-eight magnetic coil (each wing 70 mm in diameter). The optimal position of the magnetic coil for eliciting a MEP in the right abductor pollicis brevis (APB) was determined by holding the coil tangential to the scalp, and moving it in small steps over the presumed area of the left primary motor cortex at a slightly suprathreshold stimulus intensity. The coil was always held horizontally with the handle pointing backward and laterally at 45 degrees from the midline. This position was marked with a pen on a reusable latex swimming cap in order to assure constant placement of the coil throughout the visits. Stimulus intensity and threshold values were expressed as percent of the maximal stimulator output.
Resting Motor Threshold (RMT): Surface electromyographic (EMG) was recorded from the APB using 9-mm Ag—AgCl electrodes in a belly-tendon montage. The placement of electrodes on the thumb and hand was marked with a pen for exact re-placement in consecutive visits on the same day. The raw EMG signal was amplified by a factor of 100 gain and band-pass filtered, […] with a High Performance Band pass Filter Model V-7548 (LAB Linc. Co). The EMG was recorded on a G3 Macintosh with MacCRO (version 2.1).
RMT was determined in the resting APB in 4 steps: In step one and step three, thresholds were approached from a slightly suprathreshold intensity by reducing the stimulus intensity in 1% steps with a 5 sec interval between pulses, whereas in steps two and four, thresholds were approached from a slightly subthreshold intensity by increasing the stimulus intensity. RMT was defined as the first intensity that produced a MEP of greater than 50 μV in 3 out of 6 trials in the resting target muscle. A mean RMT for baseline or after medication was calculated by averaging the four values. Determination of the RMT using this technique usually lasted 30 minutes.
The percent change of RMT=100[(post-dose RMT−pre-dose RMT)/pre-dose RMT]. Paired Student's t tests (two tailed) were performed for the percent change of RMT between LTG and placebo. Wilcoxon nonparametric tests were performed for the number of active voxels in the region of interests (ROI) between LTG and placebo. We performed Pearson correlations between the percent change of RMT and the change of active voxel number. Two-way analysis of variance (ANOVA) was performed for % BOLD signal change in the different intensity stimulation and the different medication conditions. All statistical analyses were performed using SPSS 10.0 (Statistical Product and Service Solutions Inc, Chicago Ill.).

[2] = test system: motor corticospinal pathways; conditions: volunteers or patients with complex partial seizures; cited from earlier work
[3] = single oral dose of 325 mg of LTG; transiently (for 3 hours); cited from earlier work
[4] = Safety and tolerability in the crossover trial; assay type: in vivo, human; conditions: single oral dose of 325 mg LTG; healthy young men
Procedure: as §1, §2

With `Nc1nnc(-c2cccc(Cl)c2Cl)c(N)n1` [LTG, Lamotrigine] the “RMT Post-3 hours” value ([1]; LTG visit, 3 hours after single oral dose of 325 mg LTG, individual subjects 1-12) was 75.25% of machine maximum output (Magstim) and 66.25% of machine maximum output (Magstim) and 66.50% of machine maximum output (Magstim) and 99.00% of machine maximum output (Magstim) and 55.25% of machine maximum output (Magstim) and 100.00% of machine maximum output (Magstim) (2×) and 101.00% of machine maximum output (Magstim) (2×) and 64.50% of machine maximum output (Magstim) and 68.25% of machine maximum output (Magstim) and 95.25% of machine maximum output (Magstim), the “RMT Post-3 hours, mean” value ([1]; LTG visit, 3 hours after single oral dose of 325 mg LTG, mean of 12 subjects) was 82.69% of machine maximum output (Magstim) and the “RMT % Change from baseline” value ([1]; LTG visit, post-dose 3 hours vs pre-dose same day, individual subjects 1-12) was 8.27% and 28.02% and 7.26% and 30.26% and 1.38% and 3.63% and 26.10% and 19.53% and 8.86% and 15.76% and 12.81% and 16.87%. The “RMT % Change from baseline, mean” value ([1]; LTG visit, post-dose 3 hours vs same day baseline, mean of 12 subjects, placebo 0.6%) was 14.9%, the “TMS resting motor threshold compared with placebo” value ([1]; all 12 subjects, day subjects received LTG) was “significant increase” and the “resting motor threshold (RMT)” value [2] was “significantly increased”. For the same molecule, the “serum concentrations after single oral dose” value [3] was “equal to steady state levels at clinically relevant chronic doses” and the “adverse effects of the drug treatment or the stimulation” value [4] was “None of the subjects reported experiencing adverse effects”.
